Series [1] can be described thus: Plasma stability assay, mouse plasma. In kind it is in vitro ADME. The following applies: 37° C., read-out: % intact compound remaining after incubation, Mouse plasma; for remaining at 24 h, 9.8 µM: 24 h incubation.
The target of series [2] is T1, Human recombinant FAP (Homo sapiens, UniProt Q12884).
T1 sequence (Q12884 1-760): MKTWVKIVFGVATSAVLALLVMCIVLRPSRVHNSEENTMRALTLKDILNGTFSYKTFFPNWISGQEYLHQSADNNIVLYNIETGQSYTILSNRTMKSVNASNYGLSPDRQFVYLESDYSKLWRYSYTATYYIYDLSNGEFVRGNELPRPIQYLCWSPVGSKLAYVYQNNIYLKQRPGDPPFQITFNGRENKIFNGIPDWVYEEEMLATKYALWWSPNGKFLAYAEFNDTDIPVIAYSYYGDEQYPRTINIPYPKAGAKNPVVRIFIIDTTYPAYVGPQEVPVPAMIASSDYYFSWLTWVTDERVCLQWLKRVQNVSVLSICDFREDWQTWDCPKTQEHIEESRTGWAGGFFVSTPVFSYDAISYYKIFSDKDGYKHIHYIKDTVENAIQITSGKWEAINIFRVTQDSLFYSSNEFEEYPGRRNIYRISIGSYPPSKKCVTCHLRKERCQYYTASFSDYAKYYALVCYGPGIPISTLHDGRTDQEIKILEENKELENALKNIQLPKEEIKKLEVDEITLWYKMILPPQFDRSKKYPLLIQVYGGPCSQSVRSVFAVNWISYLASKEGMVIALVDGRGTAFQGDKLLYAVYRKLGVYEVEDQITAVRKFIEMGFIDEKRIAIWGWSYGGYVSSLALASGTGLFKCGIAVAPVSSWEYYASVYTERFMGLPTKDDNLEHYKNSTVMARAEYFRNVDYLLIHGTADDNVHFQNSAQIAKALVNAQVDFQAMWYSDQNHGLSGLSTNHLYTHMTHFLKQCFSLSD
The series is described as follows: Surface plasmon resonance (Biacore) assay. In kind it is binding. (In general: SPR reads the build-up and loss of mass on a sensor chip optically.)

The target of series [3] is T1, Human recombinant FAP. The series is described as follows: FRET-based FAP protease activity assay. The format is biochemical. Also noted: purchased R&D systems 3715-SE. Conditions: pIC50 Category (Activity), recombinant human FAP, FRET substrate, 37° C.
Series [4] addresses T2, FAP-expressing human WI-38 fibroblasts (Homo sapiens, UniProt Q12884).
T2 construct: FAP-expressing human WI-38 fibroblasts (ECACC) were cultured in EMEM; host or cells: WI-38 human fibroblasts
T2 sequence (Q12884 1-760): T1 sequence (Q12884 1-760)
The series is described as follows: Competitive FACS binding assay. The following applies: pIC50 Category (FACS), competition with 3 nM Cy5-labeled compound, WI-38 fibroblasts, 4° C., 1 hour. Here is the method:
Cells were analyzed in an Attune NxT flow cytometer. […]
(A flow cytometer gives signals particle by particle.)

In a further series the target is T3, Recombinant human DPP4 (Homo sapiens, UniProt P27487).
T3 construct: purchased R&D systems 9168-SE
The series is described as follows: DPP4 protease activity assay. In kind it is biochemical.

For a further series, the target named is T4, recombinant human PREP (Homo sapiens, UniProt P48147).
T4 construct: purchased R&D systems 4308-SE
T4 sequence (P48147 1-710): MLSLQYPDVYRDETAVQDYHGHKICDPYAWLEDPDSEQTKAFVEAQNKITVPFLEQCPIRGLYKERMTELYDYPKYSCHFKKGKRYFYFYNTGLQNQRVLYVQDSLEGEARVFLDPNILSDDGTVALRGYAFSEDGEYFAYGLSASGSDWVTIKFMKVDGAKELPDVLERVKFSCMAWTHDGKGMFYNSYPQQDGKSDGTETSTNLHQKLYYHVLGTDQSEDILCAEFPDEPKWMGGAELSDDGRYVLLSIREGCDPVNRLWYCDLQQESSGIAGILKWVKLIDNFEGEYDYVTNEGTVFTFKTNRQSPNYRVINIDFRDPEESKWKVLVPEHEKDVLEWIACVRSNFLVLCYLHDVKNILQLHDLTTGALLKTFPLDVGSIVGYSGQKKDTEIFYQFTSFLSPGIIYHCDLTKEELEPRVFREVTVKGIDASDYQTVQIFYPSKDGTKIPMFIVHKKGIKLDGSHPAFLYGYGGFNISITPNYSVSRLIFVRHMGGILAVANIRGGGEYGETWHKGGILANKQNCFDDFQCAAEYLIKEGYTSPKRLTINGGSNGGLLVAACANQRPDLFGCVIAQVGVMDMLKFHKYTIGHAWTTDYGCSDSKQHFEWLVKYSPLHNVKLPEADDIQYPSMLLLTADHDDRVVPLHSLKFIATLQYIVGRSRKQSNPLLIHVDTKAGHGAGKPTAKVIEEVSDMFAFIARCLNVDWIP
The series is described as follows: PREP protease activity assay. In kind it is biochemical.

Series [5] in a line: Plasma stability assay, human plasma. In kind it is in vitro ADME. The following applies: 24 h incubation, 37° C., read-out: % intact compound remaining after incubation, Human plasma.
Another series can be described thus: in vitro. Conditions: rat, plasma.
A further series concerns the target KV channel. Conditions: read-out: Ki Ref, reference compound (positive control).

Numbered stars: 1 amine (or outer) side, 2 acyl side, 3 side chain; on linkers, the order of the positions; unused ones are H or OH. Bridge positions count the residues as written; N and C are the ends. Square brackets hold non-standard residues; d marks the D form. Peptide text beside a SMILES is read from it. * marks the point of attachment. TBMB(SCH2CH2NH-DOTA) = O=C(O)CN1CCN(CC(=O)O)CCN(CC(=O)NCCSCc2cc(C[*:1])cc(C[*:2])c2)CCN(CC(=O)O)CC1; X4 = O=C1CN2CCN3CCN(CC(=O)N4CCN(Cc5cc(C[*:1])cc(C[*:2])c5)CC4)CCN(CC2)CC(=O)[O][In]([O]1)[O]C(=O)C3; X2 = O=C(O)CN1CCN(CC(=O)O)CCN(CC(=O)NCCCOCCOCCOCCCN*)CCN(CC(=O)O)CC1; mXylylene = c1cc(C[*:1])cc(C[*:2])c1; Suc = O=C(CCC(=O)[*:2])[*:1]; 4Amb = NCc1ccc(C(=O)O)cc1; Nle = CCCC[C@H](N)C(=O)O; Hexanoyl = CCCCCC(=O)*

T3 sequence (P27487 whole entry): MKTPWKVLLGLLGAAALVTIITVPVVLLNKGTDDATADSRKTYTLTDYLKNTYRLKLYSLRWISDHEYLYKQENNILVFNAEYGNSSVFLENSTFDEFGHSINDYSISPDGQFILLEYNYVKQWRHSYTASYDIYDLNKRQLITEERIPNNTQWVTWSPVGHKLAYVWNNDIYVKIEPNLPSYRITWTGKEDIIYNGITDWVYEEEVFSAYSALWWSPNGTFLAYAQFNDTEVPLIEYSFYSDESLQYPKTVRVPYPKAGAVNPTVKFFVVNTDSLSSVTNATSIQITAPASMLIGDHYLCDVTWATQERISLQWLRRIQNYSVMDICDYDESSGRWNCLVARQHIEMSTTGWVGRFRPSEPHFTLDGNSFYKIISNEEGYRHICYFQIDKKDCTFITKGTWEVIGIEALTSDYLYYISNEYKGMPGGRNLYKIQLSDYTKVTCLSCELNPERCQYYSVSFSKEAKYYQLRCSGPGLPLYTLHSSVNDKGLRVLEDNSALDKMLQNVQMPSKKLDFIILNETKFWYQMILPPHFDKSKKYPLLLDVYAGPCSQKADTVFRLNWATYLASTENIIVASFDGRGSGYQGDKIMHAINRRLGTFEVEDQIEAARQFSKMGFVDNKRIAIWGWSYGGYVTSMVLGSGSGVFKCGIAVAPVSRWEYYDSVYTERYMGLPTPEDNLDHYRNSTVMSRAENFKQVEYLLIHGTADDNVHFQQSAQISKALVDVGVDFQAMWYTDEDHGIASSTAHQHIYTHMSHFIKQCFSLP

For orientation: share remaining means what is left of the initial amount, in per cent. One may read the Kd as the equilibrium constant for the complex coming apart. As usually defined, the IC50 is the point on the concentration scale where inhibition reaches its midpoint. For the compound `CCCC[C@H](NC(=O)CCC(=O)NCCCOCCOCCOCCCNC(=O)CN1CCN(CC(=O)O)CCN(CC(=O)O)CCN(CC(=O)O)CC1)C(=O)N[C@H]1CSCc2cccc(c2)CSC[C@@H](C(=O)N[C@@H](CC(=O)O)C(=O)NCc2ccc(C(=O)N[C@@H](CCCNC(=N)N)C(N)=O)cc2)NC(=O)[C@H](Cc2ccccc2)NC(=O)[C@H](CCC(=O)O)NC(=O)[C@H]([C@@H](C)O)NC(=O)[C@@H]2CCCN2C(=O)[C@@H]2CCCN2C1=O` [3BP-3321, DOTA-Ttds-Nle-[Cys(3MeBn)-Pro-Pro-Thr-Glu-Phe-Cys]-Asp-Pamb-Arg-NH2] ({X2-Suc}-[Nle]CPPTEFCD[4Amb]R-NH2; linker 2-8 via mXylylene), the share remaining at 4 h, 9.8 µM in [1] (4 h incubation) was 94%. The equilibrium dissociation constant (Kd) on Human recombinant FAP [2] was under 10 nM. For the same compound, the half-maximal inhibitory concentration (IC50) was under 10 nM at Human recombinant FAP [3], under 10 nM in series [4], over 1000 nM on Recombinant human DPP4 and over 1000 nM on recombinant human PREP.
Consider `CCCCCC(=O)N[C@H]1CSCc2cccc(c2)CSC[C@@H](C(=O)N[C@@H](CCCCNC(=O)CN2CCN(CC(=O)O)CCN(CC(=O)O)CCN(CC(=O)O)CC2)CC(=O)O)NC(=O)[C@H](Cc2ccccc2)NC(=O)[C@H](CCC(N)=O)NC(=O)[C@H]([C@@H](C)O)NC(=O)[C@@H]2CCCN2C(=O)[C@@H]2CCCN2C1=O` [3BP-3397, Hex-[Cys(3MeBn)-Pro-Pro-Thr-Gln-Phe-Cys]-Bhk(DOTA)-OH], for which the fraction remaining at 24 h, 9.8 µM in [1] is 92%; in [5], 100%. For the same compound, at Human recombinant FAP [2], the Kd was under 10 nM. Besides, the 50% inhibitory concentration (IC50) was under 10 nM at Human recombinant FAP [3], under 10 nM in [4], over 1000 nM at Recombinant human DPP4 and over 1000 nM at recombinant human PREP.
For the compound `CCCC[C@H](NC(=O)CCC(=O)NCCCOCCOCCOCCCNC(=O)CN1CCN(CC(=O)O)CCN(CC(=O)O)CCN(CC(=O)O)CC1)C(=O)N[C@H]1CSCc2cccc(c2)CSC[C@@H](C(=O)NCCC(=O)O)NC(=O)[C@H](Cc2ccccc2)NC(=O)[C@H](CCC(N)=O)NC(=O)[C@H]([C@@H](C)O)NC(=O)[C@@H]2CCCN2C(=O)[C@@H]2CCCN2C1=O` [3BP-3398, DOTA-Ttds-Nle-[Cys(3MeBn)-Pro-Pro-Thr-Gln-Phe-Cys]-Bal-OH], the fraction remaining at 24 h, 9.8 µM in series [1] worked out at 94%; in [5], 99%. Also, at Human recombinant FAP [2], the Kd was under 10 nM. Moreover, the half-maximal inhibitory concentration (IC50) on Human recombinant FAP [3] is under 10 nM; in series [4], under 10 nM; at Recombinant human DPP4, over 1000 nM; at recombinant human PREP it was over 1000 nM.
On to `CCCCCC(=O)N[C@H]1CSCc2cc(CSCCNC(=O)CN3CCN(CC(=O)O)CCN(CC(=O)O)CCN(CC(=O)O)CC3)cc(c2)CSC[C@@H](C(=O)N[C@@H](CC(=O)O)C(N)=O)NC(=O)[C@H](Cc2ccccc2)NC(=O)[C@H](CCC(N)=O)NC(=O)[C@H]([C@@H](C)O)NC(=O)[C@@H]2CCCN2C(=O)[C@@H]2CCCN2C1=O` [3BP-3426, Hex-[Cys(tMeBn(DOTA-AET))-Pro-Pro-Thr-Gln-Phe-Cys]-Asp-NH2] (Hexanoyl-CPPTQFCD-NH2; linker 1-7 via TBMB(SCH2CH2NH-DOTA)), for which, in series [1], the amount remaining at 24 h, 9.8 µM was found to be 73%. On Human recombinant FAP [2], the dissociation constant (Kd) was under 10 nM. Further, the concentration for half-maximal inhibition (IC50) at Human recombinant FAP [3] is under 10 nM; in series [4], under 10 nM; at Recombinant human DPP4, over 1000 nM; at recombinant human PREP, over 1000 nM.
For the compound `CCCCCC(=O)N[C@H]1CSCc2cc(cc(CN3CCN(C(=O)CN4CCN5CCN6CCN(CC4)CC(=O)[O][In]([O]C(=O)C6)[O]C(=O)C5)CC3)c2)CSC[C@@H](C(=O)N[C@@H](CC(=O)O)C(N)=O)NC(=O)[C@H](Cc2ccccc2)NC(=O)[C@H](CCC(N)=O)NC(=O)[C@H]([C@@H](C)O)NC(=O)[C@@H]2CCCN2C(=O)[C@@H]2CCCN2C1=O` [3BP-3590, Indium-Complex of Hex-[Cys(tMeBn(DOTA-PP))-Pro-Pro-Thr-Gln-Phe-Cys]-Asp-NH2] (Hexanoyl-CPPTQFCD-NH2; linker 1-7 via X4), the results for the amount remaining at 24 h, 9.8 µM (in [1]; in [5]; in the series “in vitro”) were 100%, 94% and 100%, respectively. Moreover, the Kd on Human recombinant FAP [2] was under 10 nM. Also, the concentration for half-maximal inhibition (IC50) (on Human recombinant FAP [3]; in series [4]) was under 10 nM each time.
As to `CCCCCC(=O)N[C@H]1CSCc2cc(CSCCNC(=O)CN3CCN4CCN5CCN(CC3)CC(=O)[O][Lu]([O]C(=O)C4)[O]C(=O)C5)cc(c2)CSC[C@@H](C(=O)O)NC(=O)[C@H](Cc2ccccc2)NC(=O)[C@H](CCC(N)=O)NC(=O)[C@H]([C@@H](C)O)NC(=O)[C@@H]2CCCN2C(=O)[C@@H]2CCCN2C1` [3BP-3624, Lutetium-Complex of Hex-[Cys(tMeBn(DOTA-AET))-Pro-Pro-Thr-Gln-Phe-Cys]-OH], the share remaining at 24 h, 9.8 µM (in [1]; in [5]; in the series “in vitro”) was 100% each time. Besides, the Kd at Human recombinant FAP [2] is under 10 nM. The half-maximal inhibitory concentration (IC50) (at Human recombinant FAP [3]; in [4]) was under 10 nM each time.
As a reminder, the Ki is a dissociation constant, usually derived from enzyme kinetics or from competition with a known ligand. Turning to alpha-dendrotoxin, the Ki at KV channel worked out at 0.097 nM.

The record behind these values is patent US20220315554A1, “COMPOUNDS COMPRISING A […] LIGAND AND USE THEREOF” (priority 2019, published 2022).
